Measured values published in patent US20080031968A1, “Methods for increasing cellular energy expenditure” (priority 2005, published 2008).

What was measured:
[1] = test system: C57BL/6J mice; assay: LXR agonist-induced lipogenesis in C57BL/6J mice with or without CA; type: in vivo, mouse; details: C57BL/6J mice, chow diet, gavage 30 mg/kg
Method: Male C57BL/6J, KK-Ay, and ob/ob (C57BL/6J background) mice, 6-10 weeks of age, were obtained from Elevage Janvier (Le Genest St. Isle, France), CLEA Japan Inc. (Tokyo, Japan), and The Jackson Laboratory (Bar Harbor, Me., USA), respectively. All mice were maintained in a temperature-controlled (23° C.) facility with a 12-hour light/dark cycle and were given free access to food and water. The study protocols were approved by the institutional review boards. The body weight and food intake were measured every second day. The control and high-fat diet was obtained from UAR (Villemoisson sur Orge, France). […] The mice were fasted 4 hours before harvesting blood for subsequent lipid measurements, and tissues for RNA isolation, lipid measurements, and histology.
Mice were gavaged with the LXR agonist T0901317 or vehicle, and the different diets were continued for one more day, after which the mice were sacrificed.

[2] = test system: HSMM; assay: Oxygen consumption and extracellular acidification rate in HSMM; details: for cellular oxygen consumption: 48 or 72 hours; for extracellular acidification rate: after 72 hours of treatment
[3] = test system: BAT cells; assay: Isolated mouse BAT cells, D2 mRNA, D2 activity and cAMP; type: cell-based
Method: An OGTT was performed in animals that were fasted overnight. Glucose was administered by gavage at a dose of 2 g/kg. An IPITT was done in 4 h fasted animals. Insulin was injected at a dose of 0.75 U/kg. Glucose quantification was done with the Maxi Kit Glucometer 4 (Bayer Diagnostic, Puteaux, France) or Glucose RTU (bioMérieux Inc., Marcy l'Etoile, France). Plasma insulin concentrations were measured using ELISA (Cristal Chem Inc., Downers Grove, Ill.). Nonesterified fatty acids, triglycerides, ketone bodies, BA and total cholesterol were determined by enzymatic assays (Roche, Mannheim, Germany). cAMP was measured using the cAMP-Screen system (Applied Biosystems, Bedford, Mass.).

[4] = test system: HSMM; assay: D2 activity in human skeletal muscle myoblasts; type: cell-based; details: 16 h incubation
Method: HSMM were obtained from Cambrex (Walkersville, Md.) and were cultured according to the suppliers instructions. D2 activity measurements were performed after a 16 h incubation with the indicated compounds. For the cAMP measurements, cells were preincubated 12 h in Opti-MEM (Life Technologies, Cergy Pontoise, France), supplemented with 1 mM IBMX. Then medium was changed and cells were incubated for another 1 h in Opti-MEM with 1 mM IBMX, after which the medium was replaced for Opti-MEM with 1 mM IBMX and the indicated compounds. After 30 minutes the cells were lysed for cAMP analysis.

[5] = target: T1, TGR5 (Homo sapiens, UniProt Q8TDU6); assay: cAMP response element (CRE)-luciferase reporter assay with TGR5; type: cell-based; details: cells co-transfected with TGR5 expression plasmid and CRE-driven luciferase reporter
T1 construct: expressed in transfected cells
T1 sequence (Q8TDU6 1-330): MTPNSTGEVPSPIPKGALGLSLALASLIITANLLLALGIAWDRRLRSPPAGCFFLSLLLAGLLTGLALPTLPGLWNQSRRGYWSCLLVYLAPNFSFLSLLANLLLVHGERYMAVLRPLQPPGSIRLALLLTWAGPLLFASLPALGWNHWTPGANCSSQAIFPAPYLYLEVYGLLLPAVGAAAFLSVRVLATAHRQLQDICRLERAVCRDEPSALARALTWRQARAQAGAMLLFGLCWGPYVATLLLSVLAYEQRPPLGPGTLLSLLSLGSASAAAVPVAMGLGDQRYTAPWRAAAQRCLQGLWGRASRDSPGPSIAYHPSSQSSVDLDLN
Description: Since a synthetic FXRα agonist was unable to phenocopy the effects of BAs on energy expenditure, we focused our attention on FXRα-independent signaling events stimulated by BAs. […] We used a cAMP response element (CRE)-luciferase reporter assay to confirm that TGR5 is a BA receptor.
We used quantitative RT-PCR to measure the expression of D2 and TGR5 mRNAs in selected mouse tissues.

[6] = target: T1, TGR5; assay: CHO cells transiently expressing TGR5 and pCRE-Luc; type: cell-based; details: different concentrations, almost as much cAMP accumulation as with 10 μM forskolin
Description: These two steroids constitute about 2 percent by weight of gum guggul.

[7] = test system: HSMM; assay: cAMP levels in human skeletal muscle myoblasts; type: cell-based; details: 1 mM IBMX, 30 minutes
Method: HSMM were obtained from Cambrex (Walkersville, Md.) and were cultured according to the suppliers instructions. […] For the cAMP measurements, cells were preincubated 12 h in Opti-MEM (Life Technologies, Cergy Pontoise, France), supplemented with 1 mM IBMX. Then medium was changed and cells were incubated for another 1 h in Opti-MEM with 1 mM IBMX, after which the medium was replaced for Opti-MEM with 1 mM IBMX and the indicated compounds. After 30 minutes the cells were lysed for cAMP analysis.

[8] = test system: humans; details: treatment of cholesterol gallstones; cited from earlier work
[9] = test system: BAT of C57BL/6J mice; assay: BAT gene expression by microarray and Q-RT-PCR; type: in vivo, mouse; details: high fat diet mixed with CA or CDCA for 9 days
Method: For microarray analysis, RNA was isolated from BAT using the RNeasy mini kit (QIAGEN, Courtaboeuf, France). Equal amounts of RNA from mice in each group were pooled (n=3 or 4 mice) and used for cDNA synthesis. After second-strand cDNA synthesis (Life Technologies, Cergy Pontoise, France), in vitro transcription was performed with biotinylated UTP and CTP (Enzo Diagnostics, Farmingdale, N.Y.). Fragmented cRNA samples were hybridized to the Affymetrix MOE430A microarray. The raw data was analyzed using the Microarray Suite Software version 5.0 (MAS5.0, Affymetrix, Santa Clara, Calif.).

[10] = test system: mouse primary hepatocytes; assay: Endogenous SREBP-1c and target gene expression in mouse primary hepatocytes; type: cell-based
Method: Hepatocytes were isolated from wild-type male mice 8-10 weeks old. Animals were anesthetized with CO2 and livers were perfused with 40 ml Liver Perfusion Medium (Invitrogen) followed by 30 ml Liver Digestion Medium (Invitrogen), both at a flow rate of 5 ml/min. Isolated hepatocytes were resuspended in DMEM supplemented with 20% (v/v) FCS, 100 units/ml penicillin, and 100 units/ml streptomycin, and placed in plates coated with collagen IV at a density of 1×10^5 cells/cm^2. After a 4-hour incubation at 37° C. in an atmosphere of 5% CO2, the medium was changed to DMEM supplemented with 10% (v/v) FCS, 100 units/ml penicillin, 100 units/ml streptomycin, 0.5 μM dexamethasone (Sigma-Aldrich), and 0.4 μM insulin (Sigma-Aldrich). After 16 hours, the medium was changed into medium supplemented with CDCA and ligands for LXR and RXR. After an additional 18-hour incubation, cells were harvested for RNA isolation.
Total RNA was extracted from frozen tissue samples or cells using the RNeasy kit (QIAGEN, Courtaboeuf, France). cDNA was synthesized from total RNA with the SuperScript First-Strand Synthesis System (Invitrogen) and random hexamer primers. The real-time PCR measurement of individual cDNAs was performed using SYBR green dye to measure duplex DNA formation with the LightCycler System (Roche Diagnostics, Meylan, France). The sequences of the primer sets used are available online at http://www-igbmc.ustrasbg.fr/Departments/Dep_V/Dep_VA/Publi/Paper.html.

[11] = test system: mouse SREBP-1c promoter; assay: SREBP-1c promoter luciferase reporter assay in McA-RH7777 cells; type: cell-based; details: McA-RH7777 rat hepatoma cells, LXRα transfection and/or LXR and RXR agonists
Method: The LXR response elements in pSREBP-1c324-Luc were mutated for promoter analysis using the Quick Change Site-Directed Mutagenesis Kit (Stratagene, La Jolla, Calif., USA).
The rat hepatoma cell line McA-RH7777 was obtained from ATCC (Manassas, Va., USA). […] Transfections were performed in 96-well plates using Lipofectamine 2000 (Invitrogen, Cergy Pontoise, France). Each well contained 64 ng luciferase reporter and 4 ng of β-galactosidase expression plasmid. We transfected 16 ng RXRα, 16 ng LXRα, 16 ng LRH-1, 32 ng SHP expression plasmids, or the corresponding empty expression vectors. After 6 hours of incubation with the DNA-lipofectamine complexes, the transfection medium was exchanged for medium with or without the indicated ligands. Ligands for LXR and RXR were dissolved in ethanol or DMSO and added to the cells in DMEM supplemented with 10% lipoprotein-deficient serum. To suppress SREBP-1c activation by processing, leading to feed-forward induction of SREBP-1c expression, the medium used for the SREBP-1c promoter study was also supplemented with 10 μg/ml cholesterol and 1 μg/ml 25-hydroxycholesterol. Luciferase measurements were normalized to β-galactosidase activity.

[12] = test system: humans; details: cited from earlier work

SMILES: O=S(=O)(c1ccccc1)N(CC(F)(F)F)c1ccc(C(O)(C(F)(F)F)C(F)(F)F)cc1 [T0901317]
- liver weight and serum TGs [1]: induction

SMILES: N[C@@H](Cc1cc(I)c(Oc2ccc(O)c(I)c2)c(I)c1)C(=O)O [T3, 3,5,3′-triiodothyronine]
- cellular oxygen consumption [2]: elevated
- extracellular acidification rate [2]: increase

SMILES: C[C@H](CCC(=O)NCCS(=O)(=O)O)[C@H]1CC[C@H]2[C@@H]3[C@H](O)C[C@@H]4C[C@H](O)CC[C@]4(C)[C@H]3C[C@H](O)[C@]12C [TCA, taurocholic acid]
- cAMP levels ([3]; BAT cells): most effective
- D2 mRNA and activity ([3]; BAT cells from mice fed control or high fat diet): dose dependently increased
- cellular oxygen consumption [2]: elevated
- extracellular acidification rate [2]: increase
- D2 activity [4]: significant and dose dependent induction
- luciferase expression [5]: increased luciferase expression in a dose-dependent manner
- reporter activity [6]: dramatically increased
- cAMP levels [7]: increased cAMP levels in a dose-dependant fashion

SMILES: C[C@H](CCC(=O)NCCS(=O)(=O)O)[C@H]1CC[C@H]2[C@@H]3[C@H](O)C[C@@H]4C[C@H](O)CC[C@]4(C)[C@H]3CC[C@]12C [TCDCA, tauroCDCA]
- cAMP levels [7]: did not increase

SMILES: C[C@H](CCC(=O)O)[C@H]1CC[C@H]2[C@@H]3[C@H](O)C[C@@H]4C[C@H](O)CC[C@]4(C)[C@H]3CC[C@]12C [CDCA, chenodeoxycholic acid]
- hypertriglyceridemia [8]: reduce hypertriglyceridemia
- genes involved in control of energy expenditure incl. D2 in BAT (microarray) [9]: upregulated
- expression of lipogenic target genes of SREBP-1c (SCD-1, AceCS, ME) ([10]; RXR and LXR ligands plus CDCA): decreased likewise
- SHP expression ([10]; addition of CDCA): increased
- endogenous SREBP-1c expression ([10]; induced by RXR and LXR ligands, increasing amounts of CDCA, 18-hour incubation): decreased dose-dependently
- increase of SREBP-1c promoter activity [11]: attenuated
- hepatotoxicity [12]: significant hepatotoxicity
- LDL cholesterol ([12]; decrease in LDL-R activity): raise LDL cholesterol
- cAMP levels [7]: increased cAMP levels in a dose-dependant fashion
